Measurements as given in PMC4607889, “Modular Design of the Selectivity Filter Pore Loop in a Novel Family of Prokaryotic ‘Inward Rectifier’ (NirBac) channels” (Scientific Reports, 2015).

Columns and labels:
NirBac1.1 = biological target: T1, NirBac1.1 (Anaeromyxobacter dehalogenans, UniProt Q2IH88); test: […]+ uptake into proteoliposomes; type: biochemical; details: POPG as part of liposome lipid, 25% vs 50% of total; Na+ driven; activator
T1 sequence (Q2IH88 1-305): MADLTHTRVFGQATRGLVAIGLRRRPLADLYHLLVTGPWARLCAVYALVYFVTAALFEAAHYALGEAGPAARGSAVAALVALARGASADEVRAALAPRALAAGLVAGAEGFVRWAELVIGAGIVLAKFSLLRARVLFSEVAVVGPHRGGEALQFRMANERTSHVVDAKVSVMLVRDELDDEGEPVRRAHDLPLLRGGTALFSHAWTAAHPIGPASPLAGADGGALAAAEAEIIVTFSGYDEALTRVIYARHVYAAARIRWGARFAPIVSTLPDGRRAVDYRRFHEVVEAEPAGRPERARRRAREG

NirBac1.2 = biological target: T2, NirBac1.2 (Anaeromyxobacter sp. Fw109-5, UniProt A7HIG5); test: […]+ uptake into proteoliposomes; type: biochemical; details: POPG as part of liposome lipid, 25% vs 50% of total; Na+ driven; activator
T2 sequence (A7HIG5 1-299): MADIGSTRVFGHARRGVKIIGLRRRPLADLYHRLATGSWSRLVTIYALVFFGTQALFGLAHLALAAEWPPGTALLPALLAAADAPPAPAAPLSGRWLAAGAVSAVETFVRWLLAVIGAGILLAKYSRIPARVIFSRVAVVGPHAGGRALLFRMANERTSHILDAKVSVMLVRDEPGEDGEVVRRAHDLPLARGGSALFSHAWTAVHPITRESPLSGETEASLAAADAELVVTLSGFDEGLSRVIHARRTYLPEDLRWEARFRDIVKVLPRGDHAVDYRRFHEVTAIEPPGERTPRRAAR

[1] = biological target: NirBac1.1 (Anaeromyxobacter dehalogenans 2CP-C); test: SEC + native gel or EMSA; purified channel in detergent, non-denaturing conditions; Superdex200; oligomeric state (Supplementary Figure S2B,C)
[2] = biological target: NirBac1.2 (Anaeromyxobacter sp. Fw109-5); test: as above

Compound: CCCCCCCC/C=C\CCCCCCCC(=O)O[C@H](COC(=O)CCCCCCCCCCCCCCC)COP(=O)(O)OCC(O)CO (stereo partly shown) [POPG]
- fold flux increase, 25% to 50% POPG (NirBac1.1): > 5 fold
- fold flux increase, 25% to 50% POPG (NirBac1.2): > 5 fold

Compound: NirBac1.1 (natural protein)
- stoichiometry N [1]: 4

Compound: NirBac1.2 (natural protein)
- stoichiometry N [2]: 4
